Each structure is given as a SMILES string. Non-standard residues stand in square brackets, D forms with d. Residues, ends and D or L forms follow the SMILES beside them. *: point of attachment. Propanoyl(3-indol-3-yl) = O=C(CCc1c[nH]c2ccccc12)*; Trp(1-Me) = Cn1cc(C[C@H](N)C(=O)O)c2ccccc21; Tle = CC(C)(C)[C@H](N)C(=O)O; Ava = NCCCCC(=O)O

Series [1] concerns the target T1, Neuropeptides B/W receptor type 1 (Homo sapiens) (UniProt P48145).
T1 sequence (whole entry): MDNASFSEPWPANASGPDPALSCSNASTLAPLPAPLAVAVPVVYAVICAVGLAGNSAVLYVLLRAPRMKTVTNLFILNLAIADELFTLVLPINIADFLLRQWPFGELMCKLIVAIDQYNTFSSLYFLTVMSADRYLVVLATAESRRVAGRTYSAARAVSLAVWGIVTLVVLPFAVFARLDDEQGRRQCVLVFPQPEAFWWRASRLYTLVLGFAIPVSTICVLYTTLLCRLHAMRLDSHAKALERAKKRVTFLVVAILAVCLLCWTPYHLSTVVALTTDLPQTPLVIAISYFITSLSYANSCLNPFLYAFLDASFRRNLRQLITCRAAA
Kind of series: (§1) Agonist activity at human NPBWR1 expressed in CHO-RD-HGA16 cells measured by calcium mobilization assay. Format: functional, cell-based. The note with it: filed as agonist. A general note: Calcium assays in cells follow changes in intracellular calcium, usually with a dye or a luminescent sensor.

The target of series [2] is T1, Neuropeptides B/W receptor type 1 (Homo sapiens). Briefly: Agonist activity at human NPBWR1 expressed in CHO-RD-HGA16 cells measured by calcium mobilization assay relative to control. Format: functional, cell-based.
Series [3] concerns the target T2, Neuropeptides B/W receptor type 1 (Homo sapiens, UniProt P48145).
T2 sequence (P48145 whole entry): T1 sequence (whole entry)
The series is described as §1. It counts as functional, cell-based.

Series [4] concerns the target T1, Neuropeptides B/W receptor type 1 (Homo sapiens). Briefly: Antagonist activity at human NPBWR1 expressed in CHO-RD-HGA16 cells at 10 uM measured by calcium mobilization assay relative to control. Format: functional, cell-based. More on the design: scale not given: the % may be the effect or the level left. The settings on record: filed as antagonist.
For series [5], the target named is T2, Neuropeptides B/W receptor type 1. Briefly: Antagonist activity at human NPBWR1 expressed in CHO-RD-HGA16 cells measured by calcium mobilization assay. It counts as functional, cell-based.
Series [6] can be described thus: Metabolic stability in male Sprague-Dawley rat plasma assessed as compound remaining at 1 uM measured after […] by LC-MS/MS analysis. The note with it: read-out: Stability. It counts as ADME, cell-free.
For series [7], the target named is T2, Neuropeptides B/W receptor type 1. Kind of series: Agonist activity at human NPBWR1 expressed in CHO cells measured by LANCE Ultra cAMP kit-based TR-FRET assay. Format: functional, cell-based.
The nature of series [8]: Metabolic stability in male Sprague-Dawley rat plasma assessed as half-life at 1 uM measured after 240 mins by LC-MS/MS analysis. Format: ADME, cell-free.

As usually defined, the EC80 is the concentration needed for an effect of 80%. One may read the Emax as the greatest response seen or fitted, relative to the assay's reference. In the case of `CSCC[C@H](NC(=O)[C@H](CC(C)C)NC(=O)[C@H](CC(C)C)NC(=O)CNC(=O)[C@H](C)NC(=O)[C@H](C)NC(=O)[C@H](CCCNC(=N)N)NC(=O)CNC(=O)[C@@H](NC(=O)[C@@H](NC(=O)[C@H](Cc1cnc[nH]1)NC(=O)[C@H](Cc1ccc(O)cc1)NC(=O)[C@H](CCCNC(=N)N)NC(=O)[C@@H]1CCCN1C(=O)[C@H](CO)NC(=O)[C@H](C)NC(=O)[C@@H](NC(=O)[C@H](Cc1cnc[nH]1)NC(=O)[C@H](CCCCN)NC(=O)[C@H](Cc1ccc(O)cc1)NC(=O)[C@@H](N)Cc1c[nH]c2ccccc12)C(C)C)[C@@H](C)O)C(C)C)C(=O)NCC(=O)N[C@@H](CC(C)C)C(N)=O`, the EC80 in series [1] turned out to be 0.02 µM. Besides, in series [2] (filed as agonist), the maximal response (Emax) is 100%.

In general, EC50 refers to the concentration at which the effect is half-maximal. For the compound `CC(C)C[C@H](NC(=O)CNC(=O)[C@H](C)NC(=O)[C@H](C)NC(=O)[C@H](CCCNC(=N)N)NC(=O)CNC(=O)CCCCNC(=O)CCCCNC(=O)CCCCNC(=O)[C@H](CCCCN)NC(=O)[C@@H](NC(=O)[C@@H](N)Cc1c[nH]c2ccccc12)[C@@H](C)O)C(=O)N[C@H](C(N)=O)C(C)(C)C` (H-WTK[Ava][Ava][Ava]GRAAGL[Tle]-NH2), the EC50 in series [3] was 0.479 µM.

With `CC(C)C[C@H](NC(=O)[C@H](CC(C)C)NC(=O)CNC(=O)[C@H](C)NC(=O)[C@H](C)NC(=O)[C@H](CCCNC(=N)N)NC(=O)CNC(=O)CCCCNC(=O)CCCCNC(=O)CCCCNC(=O)[C@H](CCCCN)NC(=O)[C@H](NC(=O)[C@@H](N)Cc1c[nH]c2ccccc12)[C@@H](C)O)C(N)=O`, the concentration giving a half-maximal response (EC50) in series [3] was over 10 µM. Further, the Activity in series [4] was found to be 81%.

A word on the IC50: it is the point on the concentration scale where inhibition reaches its midpoint. Consider `CCCCCCCCCCCCCCCC(=O)NCCCC[C@H](NC(=O)[C@H](CCCCN)NC(=O)[C@H](CCCCN)NC(=O)[C@H](CCCCN)NC(=O)[C@H](Cc1ccc(O)cc1)NC(=O)[C@@H](N)Cc1c[nH]c2ccccc12)C(=O)N[C@@H](CCCCN)C(=O)NCCCCC(=O)NCC(=O)N[C@@H](CCCNC(=N)N)C(=O)N[C@@H](C)C(=O)N[C@@H](C)C(=O)NCC(=O)N[C@@H](CC(C)C)C(=O)N[C@@H](CC(C)C)C(N)=O`, for which the EC50 in series [3] (cho-rd-hga16) was over 10 µM. The IC50 in series [5] (cho-rd-hga16) amounted to 0.406 µM.

With `CC(C)C[C@H](NC(=O)CNC(=O)[C@H](C)NC(=O)[C@H](C)NC(=O)[C@H](CCCNC(=N)N)NC(=O)CNC(=O)CCCCNC(=O)CCCCNC(=O)CCCCNC(=O)[C@H](C)NC(=O)[C@H](Cc1ccc(O)cc1)NC(=O)[C@@H](N)Cc1c[nH]c2ccccc12)C(=O)N[C@@H](CO)C(=O)N[C@@H](CO)C(N)=O` (H-WYA[Ava][Ava][Ava]GRAAGLSS-NH2), the EC50 in series [3] worked out at 0.478 µM.

In the case of `CC(C)C[C@H](NC(=O)CNC(=O)[C@H](CO)NC(=O)[C@H](CC(C)C)NC(=O)[C@H](CC(C)C)NC(=O)CNC(=O)[C@H](C)NC(=O)[C@H](C)NC(=O)[C@H](CCCNC(=N)N)NC(=O)CNC(=O)[C@@H](NC(=O)[C@H](CO)NC(=O)[C@H](Cc1ccc(O)cc1)NC(=O)[C@H](CO)NC(=O)[C@H](CO)NC(=O)[C@H](Cc1cnc[nH]1)NC(=O)CNC(=O)[C@H](C)NC(=O)[C@H](C)NC(=O)[C@@H]1CCCN1C(=O)[C@H](CCCCN)NC(=O)[C@H](Cc1ccc(O)cc1)NC(=O)[C@@H](N)Cc1c[nH]c2ccccc12)C(C)C)C(N)=O`, the remaining at 0.25 h, 1 µM in series [6] stood at 48%.

As for `CC(C)C[C@H](NC(=O)CNC(=O)[C@H](C)NC(=O)[C@H](C)NC(=O)[C@H](CCCNC(=N)N)NC(=O)CCCCNC(=O)CCCCNC(=O)CCCCNC(=O)[C@H](CCCCN)NC(=O)[C@H](Cc1ccc(O)cc1)NC(=O)[C@@H](N)Cc1c[nH]c2ccccc12)C(=O)N[C@H](CC(C)C)C(N)=O`, in series [3], the EC50 was found to be 0.463 µM. Besides, the Emax in series [2] (filed as agonist) is 57%.

In the case of `CC(C)C[C@H](NC(=O)[C@H](CC(C)C)NC(=O)CNC(=O)[C@H](C)NC(=O)[C@@H](C)NC(=O)[C@H](CCCNC(=N)N)NC(=O)CCCCNC(=O)CCCCNC(=O)CCCCNC(=O)[C@H](CCCCN)NC(=O)[C@H](Cc1ccc(O)cc1)NC(=O)[C@@H](N)Cc1c[nH]c2ccccc12)C(N)=O`, the EC50 in series [3] was found to be 0.578 µM. In addition, the Emax in series [2] came out at 33%.

In the case of `CC(C)C[C@H](NC(=O)[C@H](CC(C)C)NC(=O)CNC(=O)[C@H](C)NC(=O)[C@H](C)NC(=O)[C@@H](CCCNC(=N)N)NC(=O)CCCCNC(=O)CCCCNC(=O)CCCCNC(=O)[C@H](CCCCN)NC(=O)[C@H](Cc1ccc(O)cc1)NC(=O)[C@@H](N)Cc1c[nH]c2ccccc12)C(N)=O`, in series [3], the half-maximal effective concentration (EC50) is over 10 µM.

By half-life is commonly meant the time in which the quantity being followed falls by half. As for `CC(C)C[C@H](NC(=O)[C@H](CC(C)C)NC(=O)CNC(=O)[C@H](C)NC(=O)[C@H](C)NC(=O)[C@H](CCCNC(=N)N)NC(=O)CNC(=O)CCCCNC(=O)CCCCNC(=O)CCCCNC(=O)[C@H](CCCCN)NC(=O)[C@H](Cc1ccc(O)cc1)NC(=O)[C@H](Cc1c[nH]c2ccccc12)NC(=O)CCc1c[nH]c2ccccc12)C(N)=O` ({Propanoyl(3-indol-3-yl)}-WYK[Ava][Ava][Ava]GRAAGLL-NH2), the EC50 came to 0.008 µM in series [3] and 0.0027 µM in series [7]. The remaining at 0.25 h, 1 µM in series [6] stood at 86%. The half-life at 1 µM in series [8] was 39.1 min.

Regarding `CC(C)C[C@H](NC(=O)[C@H](CC(C)C)NC(=O)CNC(=O)[C@H](C)NC(=O)[C@H](C)NC(=O)[C@H](CCCNC(=N)N)NC(=O)CNC(=O)CCCCNC(=O)CCCCNC(=O)CCCCNC(=O)[C@H](CCCCN)NC(=O)[C@H](Cc1ccc(O)cc1)NC(=O)[C@H](Cc1c[nH]c2ccccc12)NC(=O)[C@@H](N)Cc1cn(C)c2ccccc12)C(N)=O` (H-[Trp(1-Me)]WYK[Ava][Ava][Ava]GRAAGLL-NH2), the EC50 in series [3] was over 10 µM. In addition, the IC50 in series [5] came out at 0.545 µM.

For `CC(C)C[C@H](NC(=O)[C@@H](CC(C)C)NC(=O)CNC(=O)[C@H](C)NC(=O)[C@H](C)NC(=O)[C@H](CCCNC(=N)N)NC(=O)CCCCNC(=O)CCCCNC(=O)CCCCNC(=O)[C@H](CCCCN)NC(=O)[C@H](Cc1ccc(O)cc1)NC(=O)[C@@H](N)Cc1c[nH]c2ccccc12)C(N)=O`, the EC50 in series [3] was found to be 0.53 µM. The Emax in series [2] turned out to be 38%.

For the compound `CCCCCCCCCCCCCCCC(=O)NCCCC[C@@H](NC(=O)[C@H](CCCCN)NC(=O)[C@H](CCCCN)NC(=O)[C@H](CCCCN)NC(=O)[C@H](Cc1ccc(O)cc1)NC(=O)[C@@H](N)Cc1c[nH]c2ccccc12)C(=O)N[C@@H](CCCCN)C(=O)NCCCCC(=O)NCC(=O)N[C@@H](CCCNC(=N)N)C(=O)N[C@@H](C)C(=O)N[C@@H](C)C(=O)NCC(=O)N[C@@H](CC(C)C)C(=O)N[C@@H](CC(C)C)C(N)=O`, the Activity in series [4] stood at 95%.

As to `CC(C)C[C@H](NC(=O)CNC(=O)[C@H](C)NC(=O)[C@H](C)NC(=O)[C@H](C)NC(=O)CNC(=O)CCCCNC(=O)CCCCNC(=O)CCCCNC(=O)[C@H](CCCCN)NC(=O)[C@H](Cc1ccc(O)cc1)NC(=O)[C@@H](N)Cc1c[nH]c2ccccc12)C(=O)N[C@@H](CO)C(=O)N[C@@H](CO)C(N)=O` (H-WYK[Ava][Ava][Ava]GAAAGLSS-NH2), the 50% effective concentration (EC50) in series [3] was over 10 µM.

For the compound `CC(C)C[C@H](NC(=O)CNC(=O)[C@H](C)NC(=O)[C@H](C)NC(=O)[C@H](CCCNC(=N)N)NC(=O)CNC(=O)CCCCNC(=O)CCCCNC(=O)CCCCNC(=O)[C@H](C)NC(=O)[C@@H](N)Cc1c[nH]c2ccccc12)C(=O)N[C@@H](CC(C)C)C(=O)N[C@@H](CO)C(N)=O` (H-WA[Ava][Ava][Ava]GRAAGLLS-NH2), the EC50 in series [3] is over 10 µM. Also, the Activity in series [4] amounted to 95%. In addition, in series [5], the 50% inhibitory concentration (IC50) was found to be 0.84 µM.
